Experimental data from patent US20040054244A1, “Process of quadricyclane production” (Exciton, Inc., priority 2000, published 2004).

Assay: Solubility of sensitizer in norbornadiene
Details: at room temperature

Compound	solubility in norbornadiene
CCN(CC)c1ccc(C(=O)c2ccc(N(CC)CC)cc2)cc1 [EMK, 4,4′-bis (diethylamino) benzophenone]	at least 3.86 % by weight
CN(C)c1ccc(C(=O)c2ccc(N(C)C)cc2)cc1 [MK, 4,4′-bis (dimethylamino)-benzophenone]	≤ 0.32 % by weight
